Results: patent US20180186796A1, “COMPOUNDS AND USES THEREOF” (LEAD DISCOVERY SIENA S.R.L., priority 2014, published 2018)
Read-outs that look alike come from different tables or passages of the source.

Assays:
SH-SY5Y cells [1] = assay: Spheroid growth assay (SH-SY5Y); format: cell-based; conditions: Homo sapiens; SH-SY5Y Neuroblastoma cell spheroid; read-out: Cellular Data (IC50, μM) SH-SY5Y
Description: The in vitro antitumoral action of inhibitors was evaluated by neuroblastoma spheroid assay. The SH-SY5Y cell line was utilized as cell model of human neuroblastoma. Cells were purchased from American Type Culture Collection (ATCC, Manassas, Va., USA) and were cultured in DMEM medium supplemented with 10% Fetal Bovine Serum. IBIDI angiogenesis micro-slides (IBIDI GmbH) coated with growth factor reduced Matrigel (BD, Bioscience) and allowed to polymerize for 30 minutes. SH-SY5Y cells were seeded in a 96-multiwell plate in the presence or not (CTR) of inhibitors. […] The size of cellular spheres, in terms of area and diameter, was determined using an Image Pro-plus v 4.5 analysis system considering 5 random fields/treatment (400× magnification).
Antitumoral effect was also tested by spheroid formation assay.

Recombinant human Src = target: T1, Recombinant human Src (Homo sapiens, UniProt P12931); assay: Enzymatic assay on isolated Src; format: biochemical; conditions: mean of at least two experiments; read-out: Enzymatic Data (Ki, μM) c-Src
T1 construct: purchased Upstate (Lake Placid, N.Y.)
Description: Recombinant human Src was purchased from Upstate (Lake Placid, N.Y.).

[2] = Microsomal stability assay; conditions: percentage of unmodified drug, Table 8
SH-SY5Y cells [3] = conditions: previously reported (ref 20); read-out: antiproliferative effect on SH-SY5Y NB cells (IC50); cited from earlier work
[4] = PAMPA, intestinal (GI) permeability
recombinant Fyn = recombinant Fyn (Homo sapiens, UniProt P06241); assay: Enzymatic assay on isolated Fyn kinase
[5] = test system: Fyn mediated phosphorylation of residue Tyr18 in Tau protein; assay: Aβ42 induced Tyr18-Tau phosphorylation in differentiated SH-SY5Y cells; format: cell-based, human
Description: The neuroblastoma cell line SH-SY5Y was cultured in media obtained by mixing equal volume of MEM and HAM F12 supplemented with 15% fetal calf serum (FCS, Australian origin, Lonza), 100 U/ml penicillin, 100 μg/ml streptomycin and 2 mM L-glutamine (all from Euroclone) at 37° C. in humidified air with 5% CO2. The medium was changed every 48 hours. Cells were split at about 80% confluence and never cultured beyond passage 20. Cell differentiation was achieved by pre-treating for 5 days the SH-SY5Y cells with media containing 1% FCS and 10 μM retinoic acid (RA, Sigma Aldrich). Subsequently cells were treated for other 7 days in media with no serum and supplemented with 50 ng/ml of human recombinant brain derived neurotrophic factor (BDNF, Peprotech), 10 ng/ml human recombinant beta nerve growth factor (NGF, Peprotech), 10 ng/ml neuregulin 1 beta 2 protein (NRG, Abcam) and 9.35 μg/ml vitamin D3 (Sigma Aldrich). To confirm full neuronal differentiation, the expression of mature isoforms of Tau were checked. Differentiated cells were treated for 1.5, 3 and 6 hours with media containing 10 μM Aβ42 oligomer/protofibrils and N2 supplement (Life Technologies), in the presence or in the absence of Fyn inhibitors dissolved in DMSO. As control, cells were treated with media containing equivalent amounts of DMSO.
Briefly, Aβ42 peptides (Sigma) were dissolved in 1,1,1,3,3,3-hexafluoro-2-propanol and lyophilized to completely remove the solvent. Lyophilized Aβ42 peptides were reconstituted in DMSO to a working concentration of 10 mM, diluted 1:100 using HAM F12 (without phenol red and glutammine), vortexed for 15 sec and incubated 24 hours at 4° C. A042 oligomer/protofibrils were visualized by SDS-PAGE and silver staining.

human normal fibroblasts = assay: Toxicity in human normal fibroblasts; format: cell-based
K562 cells = assay: Antiproliferative activity on human cell line K562; format: cell-based
Description: In vitro experiments were carried out using the human Chronic Myelogeneous Leukemia cell line K562. Cells were purchased from American Type Culture Collection (ATCC, Manassas, Va., USA) and were cultured in RPMI medium supplemented with 10% Foetal Bovine Serum. […] Cell number and vitality were evaluated using the automatic cell counter NucleoCounteri (Chemometec, Denmark). Results from the NucleoCounter represented either total or non-viable cell concentration, depending on the sample preparation indicated by manufacturer.
In vitro experiments were carried out using the human Chronic Myelogeneous Leukemia cell line K562. Cells were purchased from American Type Culture Collection (ATCC, Manassas, Va., USA) and were cultured in RPMI medium supplemented with 10% Foetal Bovine Serum. […] Cell number and vitality were evaluated using the automatic cell counter NucleoCounter® (Chemometec, Denmark). Results from the NucleoCounter represented either total or non-viable cell concentration, depending on the sample preparation indicated by manufacturer.

recombinant Fyn, sequence (P06241 whole entry, looked up): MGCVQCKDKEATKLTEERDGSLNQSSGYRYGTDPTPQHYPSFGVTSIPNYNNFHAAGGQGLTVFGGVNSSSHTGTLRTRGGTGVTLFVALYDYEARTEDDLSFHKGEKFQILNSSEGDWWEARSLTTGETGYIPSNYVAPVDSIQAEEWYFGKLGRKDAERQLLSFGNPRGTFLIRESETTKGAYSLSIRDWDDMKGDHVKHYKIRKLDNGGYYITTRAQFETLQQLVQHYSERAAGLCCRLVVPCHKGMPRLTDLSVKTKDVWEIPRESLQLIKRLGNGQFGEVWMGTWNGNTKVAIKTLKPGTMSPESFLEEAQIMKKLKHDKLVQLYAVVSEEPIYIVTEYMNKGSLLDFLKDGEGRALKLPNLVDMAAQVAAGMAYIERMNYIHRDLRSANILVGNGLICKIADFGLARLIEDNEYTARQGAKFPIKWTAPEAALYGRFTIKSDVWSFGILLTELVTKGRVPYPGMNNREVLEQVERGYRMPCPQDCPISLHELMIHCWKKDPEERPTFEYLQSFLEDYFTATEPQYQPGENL
T1 sequence (P12931 whole entry): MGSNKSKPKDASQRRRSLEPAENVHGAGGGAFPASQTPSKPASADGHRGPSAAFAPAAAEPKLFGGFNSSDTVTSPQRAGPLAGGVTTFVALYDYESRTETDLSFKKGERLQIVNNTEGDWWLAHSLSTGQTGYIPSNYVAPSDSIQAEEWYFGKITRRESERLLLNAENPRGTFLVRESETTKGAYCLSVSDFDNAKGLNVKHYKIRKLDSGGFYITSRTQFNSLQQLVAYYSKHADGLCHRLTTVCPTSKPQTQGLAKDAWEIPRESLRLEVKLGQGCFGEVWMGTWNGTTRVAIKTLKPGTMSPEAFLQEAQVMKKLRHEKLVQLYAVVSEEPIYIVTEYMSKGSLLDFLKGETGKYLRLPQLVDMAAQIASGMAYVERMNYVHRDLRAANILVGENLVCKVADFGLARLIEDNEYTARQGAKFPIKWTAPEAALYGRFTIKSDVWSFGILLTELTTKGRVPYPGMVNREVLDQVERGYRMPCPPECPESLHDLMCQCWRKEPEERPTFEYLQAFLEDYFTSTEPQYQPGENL
Description for PAMPA, BBB permeability: Donor solution (0.5 mM) was prepared by diluting 1 mM dimethylsulfoxide (DMSO) compound stock solution using phosphate buffer (pH 7.4, 0.025 M). […] Donor solution (150 μL) was added to each well of the filter plate. To each well of the acceptor plate were added 300 μL of solution (50% DMSO in phosphate buffer). All compounds were tested in three different plates on different days. The sandwich was incubated for 5 h at room temperature under gentle shaking. After the incubation time, the plates were separated, and samples were taken from both receiver and donor sides and analyzed using LC with UV detection at 280 nm.
Permeability (Papp) for PAMPA was calculated according to the following equation, obtained from Wohnsland and Faller^27 and Sugano et al.^28 equation with some modification in order to obtain permeability values in cm s^−1,
Drug concentration is estimated by using the peak area integration. Membrane retentions (%) were calculated according to the following equation:
where r is the ratio between drug concentration in the acceptor and equilibrium concentration, D, A, and Eq represented drug concentration in the donor, acceptor and equilibrium solution, respectively.
Donor solution of tested compounds (0.5 mM) was prepared by diluting 1 mM dimethylsulfoxide (DMSO) compound stock solution using phosphate buffer (pH 7.4, 25 mM). […] Donor solution (150 μL) was added to each well of the filter plate. To each well of the acceptor plate were added 300 μL of solution (50% DMSO in phosphate buffer). Compounds was tested in three different plates on different days. The sandwich was incubated for 5 h at room temperature under gentle shaking.
Permeability (Papp) for PAMPA was calculated according to the following equation, obtained from Wohnsland and Faller and Sugano et al.^27, 28.
Drug concentration is estimated by using the peak area integration. Membrane retention (%) was calculated according to the following equation:

Fc1ccccc1CNc1nc(SCCN2CCOCC2)nc2c1cnn2CCc1ccccc1
IC50 (SH-SY5Y cells [1]): 63 µM | Ki (Recombinant human Src): 0.17 µM

CSc1nc(Nc2cccc(Cl)c2)c2cnn(CCc3ccccc3)c2n1 [Si214, N-(3-chlorophenyl)-6-(methylthio)-1-phenethyl-1H-pyrazolo[3,4-d]pyrimidin-4-amine]
Metabolic Stab. % [2]: 99.0% | PAMPA BBB (MR %) (PAMPA, BBB permeability; Membrane Retention, BBB): (55.7) % | Papp at 5 h, 0.5 mM (PAMPA, BBB permeability; PAMPA, pH 7.4): 1.48 ×10⁻⁶ cm/s | IC50 (SH-SY5Y cells [3]): 80 nM | PAMPA GI ([4]; Gastrointestinal PAMPA, Table 8): 0 10^−6 cm · sec^−1 | PAMPA GI (MR %) ([4]; Membrane Retention, GI): (78.0) %

Nc1ncnc2c1c(-c1ccc(Cl)cc1)nn2CC(Cl)c1ccccc1 (stereo not shown) [Si308, 3-(4-Chlorophenyl)-1-(2-chloro-2-phenylethyl)-1H-pyrazolo[3,4-d]pyrimidin-4-amine]
melting point: 150 to 151 °C | Ki (recombinant Fyn): 95 nM | Ki (recombinant Fyn; read-out: Ki Fyn): 70 nM | duration of inhibitory activity on Tau phosphorylation ([5]; after compound administration): effective up to six hours | Aβ42 induced Tyr18-Tau phosphorylation ([5]; dose dependent): significantly affected | cell toxicity in human normal fibroblasts (human normal fibroblasts): did not showed any sign of cell toxicity | IC50 for cell viability K562 (K562 cells): submicromolar range | IC50 (K562 cells; Homo sapiens, K562, read-out: Cellular Data (IC50, μM) K562): 0.56 ± 0.01 µM
